Measurements taken from patent US20260240844A1, “INHIBITORS OF CHD1L AND USES THEREOF” (The Regents of the University of Colorado, a body corporate, priority 2023, published 2026).
Read-outs that look alike come from different tables or passages of the source.

How the values were obtained:
SW948 tumor organoids = assay: cells
Procedure: ATM is an important protein involved in the initial stages of the DNA damage response. […] ATM mutations are important markers being developed to identify metastatic CRC (mCRC) patients that may be sensitive to DNA damaging chemotherapy.
Synergy was assessed using the Bliss model.

[1] = tested on: SW620 CRC cells cultured as tumor organoids; assay: Viability of isolated EMT phenotype SW620 tumor organoids; type: cell-based; conditions: SW620 E, E/M, 72 h, combined with Compound 6
Procedure: FIG. 5A provides graphs showing isolated quasi EMT SW620 CRC cells E (red), E/M (yellow), and M (green) were cultured as tumor organoids and treated with SN38 combined with Compound 6 over 72 h as indicated. […].
CHD1L also regulates DNA repair via CHD1L/TCF-driven EMT by upregulating ZEB1 in CRC. ZEB1 promotes mesenchymal cell survival by upregulating the DDR. CHD1Li may sensitize isolated quasi EMT phenotypes by inhibiting EMT and DNA repair. To test this, combination studies with Compound 6 and chemotherapy measuring the viability of isolated EMT dual-reporter quasi-E, -E/M, and -M SW620 (HR-proficient) cells and HCT116 (HR-deficient) cells cultured as tumor organoids were tested. […]. […] […]. Taken together, CHD1Li synergized with chemotherapy and targeted therapy to overcome EMT-mediated drug resistance in CRC.

SW620 tumor organoids = conditions: 72 h; for IC50: read-out: IC50 SN38
SUM149PT tumor organoids = assay: Tumor organoid cytotoxicity (CellTiter Glo 3D), SUM149PT; type: cell-based; conditions: SUM149PT tumor organoids; combined with Compound 6
Procedure: Tumor organoid culture—Cell lines were cultured as tumor organoids by seeding 2,000 to 5,000 cells/well into uncoated 96 well U-bottom Ultra Low Attachment Microplates (Corning) using their corresponding medium.
Luminescence was recorded using the EnVision plate reader (PerkinElmer) and values normalized to the controls using GraphPad Prism.

CHD1L = molecular target: T1, CHD1L (Homo sapiens, UniProt Q86WJ1); assay: CHD1L trapping (in situ subcellular fractionation, immunofluorescence); type: cell-based; conditions: single agent; SUM149PT + 0.01% MMS 4 h; BC and CRC cells
T1 sequence (Q86WJ1 1-897): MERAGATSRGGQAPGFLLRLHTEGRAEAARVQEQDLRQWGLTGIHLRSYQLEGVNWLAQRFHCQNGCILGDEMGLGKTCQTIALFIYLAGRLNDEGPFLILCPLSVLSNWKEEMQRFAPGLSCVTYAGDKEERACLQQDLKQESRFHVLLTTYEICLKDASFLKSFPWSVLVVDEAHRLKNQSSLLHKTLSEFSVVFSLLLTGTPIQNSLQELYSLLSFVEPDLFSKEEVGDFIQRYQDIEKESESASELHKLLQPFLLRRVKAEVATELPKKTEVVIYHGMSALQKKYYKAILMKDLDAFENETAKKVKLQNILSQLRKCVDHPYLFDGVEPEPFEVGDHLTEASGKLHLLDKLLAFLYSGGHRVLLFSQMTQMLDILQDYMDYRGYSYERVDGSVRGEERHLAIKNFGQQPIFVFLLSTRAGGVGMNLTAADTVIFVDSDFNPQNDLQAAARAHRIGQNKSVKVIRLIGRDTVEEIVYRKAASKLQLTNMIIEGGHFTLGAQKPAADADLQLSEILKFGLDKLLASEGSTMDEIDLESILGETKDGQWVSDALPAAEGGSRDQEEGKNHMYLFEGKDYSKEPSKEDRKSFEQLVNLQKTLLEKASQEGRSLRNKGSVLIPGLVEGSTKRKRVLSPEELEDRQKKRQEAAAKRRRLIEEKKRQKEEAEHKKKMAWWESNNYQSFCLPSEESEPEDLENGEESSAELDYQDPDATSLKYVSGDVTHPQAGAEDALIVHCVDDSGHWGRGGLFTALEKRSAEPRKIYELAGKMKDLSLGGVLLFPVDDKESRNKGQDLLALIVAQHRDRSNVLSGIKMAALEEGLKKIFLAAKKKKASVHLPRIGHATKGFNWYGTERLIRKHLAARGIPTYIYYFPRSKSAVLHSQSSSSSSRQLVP
Source text: Other studies on the role of CHD1L used cell lines with knockdown or knockouts of the gene encoding for CHD1L and have never been able to study the result of its enzymatic inhibition.

PAR in SUM149PT cells = assay: PAR immunofluorescence (nuclear / cytoplasmic PAR); type: cell-based; conditions: SUM149PT cells; single agent, 4 h
Source text: Inhibition of CHD1L promotes PAR translocation to the cytoplasm. The main role of PARP1 during the DDR is to detect and signal the recruitment of repair machinery to the sites of DNA damage. For that, PARP1/2 catalyze PARylation, which is a pivotal […] protein modification, consisting of the addition of ADP-ribose units to the carboxyl group of acidic residues such as glutamate or aspartate on target proteins by using NAD^+ as substrate. CHD1L is one of the proteins that requires binding to these PAR chains for its activation and subsequent chromatin remodeling. Using immunofluorescence of PAR, the effect of PARPi and CHD1Li on PARylation in SUM149PT cells was investigated. […] In addition, the effect of doxorubicin on nuclear PARylation was reverted by CHD1L inhibition, causing an increase of PAR in the cytoplasm (FIG. 25A-C).

AIF in SUM149PT cells = assay: AIF immunofluorescence in SUM149PT (SUM149) cells; type: cell-based; conditions: for decrease in AIF in the cytoplasm / increase in AIF in the nucleus: SUM149 cells, 4 μM
Source text: CHD1Li-mediated PAR translocation to the cytoplasm activates PARthanatos as a cell death mechanism. Parthanatos is a form a programmed cell death different from apoptosis and known to be mediated by PARP1 overactivation. The unique events occurring during parthanatos are: PARP1 rapid activation, accumulation of PAR and nuclear translocation of apoptosis inducing factor (AIF). Without being bound by any particular theory, accumulation of PAR in the cytoplasm caused by CHD1Li can also mediate parthanatos. To better understand the link between PAR translocation to the cytoplasm and cell death, immunofluorescence to measure the activation of caspase-3 and the subcellular localization of AIF after treatment with SOC drugs and Compound 6 in SUM49PT cells was used. […] Without being bound by any particular theory, this might be caused by the mitochondrial outer membrane permeabilization, which triggers release of mitochondrial proteins like AIF or cytochrome c, activating caspase-3 by its cleavage and leading to apoptosis. […] Moreover, when combining CHD1L inhibition with SOC drugs, the cell death mechanism shifts from apoptosis to parthanatos, evidenced by a significant increase in AIF nuclear translocation and decrease in activation of caspase-3 (FIG. 25D-E).
(§1) The ability of Compounds 12, 15 and 16 to localize AIF was tested in SUM149 (breast cancer) and MDA-MB-231 (TNBC) cell lines. A comparison of the relative distribution of AIF in nuclei (a) versus cytoplasm (b) in SUM149 cells and nuclei (c) versus cytoplasm (d) in MDA-MB-231 cells in the presence of 4 μM Compounds 12, 15 and 16 are shown in FIG. 28. […] Similarly, AIF concentration in the cytoplasm of MDA-MB-231 cells decreased by about 0.5 after administration with Compound 15. After treatment with Compound 16, the relative concentration of AIF in the nuclei of SUM149 cells increased by about 0.5-fold, and the concentration of AIF in the cytoplasm decreased by about 0.4-fold. In MDA-MB-231 cells, the relative concentration of AIF in the cytoplasm decreased by about 0.5-fold, while the concentration of AIF increased in the nuclei by about 0.1-fold.

AIF in MDA-MB-231 cells = assay: AIF localization in MDA-MB-231 cells; type: cell-based; conditions: 4 μM
Procedure: as §1

Colo678 cells = assay: Colo678 cell viability, combination with chemotherapy; type: cell-based; conditions: Colo678 cells
Colo679 cells = assay: DDR biomarkers (pATM, RAD51, 53BP1, γ-H2AX) in Colo679 cells; type: cell-based; conditions: 4 μM
Source text: (§2) Etoposide was used as a control to show upregulation of DDR pathway biomarkers.

[2] = tested on: SUM149 and MDA-MB-231 cells; assay: DDR biomarkers in breast cancer cells; type: cell-based; conditions: 4 μM
Source text: as §2

HCT116 Parental cells = assay: HCT116 Parental cell viability, combination with chemotherapy; type: cell-based; conditions: HCT116 cells
SW620 Parental cells = assay: SW620 Parental cell viability, combination with chemotherapy; type: cell-based; conditions: SW620 cells
MiaPaca2 cells = assay: MiaPaca2 cell viability, combination with chemotherapy; type: cell-based; conditions: MiaPaca2 cells
Source text: The cell viability assays and Bliss synergy analyses are as described above in Examples 1-9 and 11-12.

[3] = SW620 tumor organoids, + Compound 6.11 2.75 μM
[4] = SUM149PT cells, single agent, 18 h

Compound | decrease in AIF in the cytoplasm (AIF in SUM149PT cells) | increase in AIF in the nucleus (AIF in SUM149PT cells) | decrease in AIF in the cytoplasm (AIF in MDA-MB-231 cells) | calculated mean synergy score (Colo678 cells; 72 h, combined with SN-38) | amount of 53BP1 (Colo679 cells) | amount of pATM (Colo679 cells) | γ-H2AX concentrations (Colo679 cells) | amounts of γ-H2AX and 53BP1 [2] | increase in AIF in the nuclei (AIF in MDA-MB-231 cells) | other results
CCc1c2c(nc3ccc(O)cc13)-c1cc3c(c(=O)n1C2)COC(=O)[C@]3(O)CC [SN-38] | – | – | – | – | – | – | – | – | – | increase in potency of the chemotherapy (SW948 tumor organoids; SW948 tumor organoids, combined with Compound 6): 1000 fold; improvement of cytotoxic potency (SW948 tumor organoids; SW948 tumor organoids, combined with Compound 6.11): 1,000 fold; IC50 (SW948 tumor organoids; read-out: IC50 SN38, SW948 tumor organoids, SN38 alone): 3160 nM; IC50 (SW948 tumor organoids; read-out: IC50 SN38, SW948 tumor organoids, combined with Compound 6.11): 3.2 nM; IC50 (SW948 tumor organoids; read-out: IC50 SN-38, SW948 tumor organoids, combined with Compound 6): ~3 nM; IC50 (SW948 tumor organoids; read-out: IC50 of chemotherapy alone, SW948 chemo resistant tumor organoids): ~3000 nM; increase of SN38 cytotoxic potency [1]: hundreds-of-fold to thousands-of-fold; increase in cytotoxic potency compared to drug alone (SW620 tumor organoids; [3]): ~ 600 fold; IC50 (SW620 tumor organoids; SW620 (ATM wt) tumor organoids, SN38 alone): ~600 nM; IC50 (SW620 tumor organoids; [3]): ~1 nM
CCc1cc2ncc(CN3CCN(c4ccc(C(=O)NC)nc4)CC3)cc2[nH]c1=O [AZD5305] | – | – | – | – | – | – | – | – | – | improvement of IC50 potency (SUM149PT tumor organoids): 2.7 fold; CHD1L trapping onto chromatin/nucleosomes (CHD1L): did not show CHD1L trapping; nuclear PAR (PARylation) (PAR in SUM149PT cells): inhibition of nuclear PARylation; cytoplasmic AIF (AIF in SUM149PT cells; [4]): increase in the AIF intensity in the cytoplasm; nuclear AIF (AIF in SUM149PT cells; [4]): no translocation of this protein to the nucleus
Cc1cc(Nc2ccc(NC(=O)Cc3ccc(Br)s3)cc2)nc(N2CCCC2)n1 [Compound 15, 2-(5-bromothiophen-2-yl)-N-(4-((6-methyl-2-(pyrrolidin-1-yl)pyrimidin-4-yl)amino)phenyl)acetamide] | about 0.5 fold | about 0.5 fold | about 0.5 fold | – | – | – | – | – | – | –
Cc1cc(Nc2ccc(NC(=O)c3cnc(Br)s3)cc2)nc(N2CCCC2)n1 [Compound 14, 2-bromo-N-(4-((6-methyl-2-(pyrrolidin-1-yl)pyrimidin-4-yl)amino)phenyl)thiazole-5-carboxamide] | – | – | – | about 57 | decrease the amount of 53BP1 | increased the amount of pATM | decreased | overall decreases in the amounts of γ-H2AX and 53BP1 | – | calculated mean synergy score (Colo678 cells; combined with 5-FU): about 26
Cc1cc(Nc2ccc(NC(=O)Cc3c[nH]c4c(Cl)cccc34)cc2)nc(N2CCCC2)n1 [Compound 16, 2-(7-chloro-1H-indol-3-yl)-N-(4-((6-methyl-2-(pyrrolidin-1-yl)pyrimidin-4-yl)amino)phenyl)acetamide] | about 0.4 fold | about 0.5 fold | about 0.5 fold | about 26 | decrease the amount of 53BP1 | increased the amount of pATM | decreased | overall decreases in the amounts of γ-H2AX and 53BP1 | about 0.1 fold | –
Cc1cc(Nc2ccc(NC(=O)c3cc(Br)c[nH]3)cc2)nc(N2CCCC2)n1 [Compound 12, 4-bromo-N-(4-((6-methyl-2-(pyrrolidin-1-yl)pyrimidin-4-yl)amino)phenyl)-1H-pyrrole-2-carboxamide] | decrease in AIF in the cytoplasm | ~1 fold | – | about 26 | decrease the amount of 53BP1 | increased the amount of pATM | decreased | overall decreases in the amounts of γ-H2AX and 53BP1 | localized in both the nuclei and remained in the cytoplasm | calculated mean synergy score (HCT116 Parental cells; 72 h, combined with SN-38): about 20; calculated mean synergy score (HCT116 Parental cells; combined with 5-FU): about 19; calculated mean synergy score (SW620 Parental cells; 72 h, combined with SN-38): about 53; calculated mean synergy score (SW620 Parental cells; combined with 5-FU): about 39; calculated mean synergy score (MiaPaca2 cells; combined with 5-FU): about 57; calculated mean synergy score (MiaPaca2 cells; combined with SN-38): about 18; amount of RAD51 (Colo679 cells): decrease in RAD51
